Experimental data as given in US11965039B2, “Compstatin analogues and their medical uses” (priority 2018, dated 2024).
Starred links: 1 amine or outer side, 2 acyl side, 3 side chain; linkers in the order of their positions; H or OH if unused. Positions of bridges follow the written chain, without caps; N, C: chain ends. Non-standard residues stand in square brackets, D forms with d. Residues, ends and D or L forms follow the SMILES beside them. Groups on a side chain read outwards from the residue. *: point of attachment. Trp(1-Me) = Cn1cc(C[C@H](N)C(=O)O)c2ccccc21; C18 diacid = O=C(O)CCCCCCCCCCCCCCCCC(=O)*; γGlu = O=C(O)[C@H](CCC(=O)[*:2])N[*:1]; 1Nal = N[C@@H](Cc1cccc2ccccc12)C(=O)O; Aoc = NCCCCCCCC(=O)O; Sar = CNCC(=O)O

Tests used:
[1] = tested on: classical complement pathway; assay: In vitro haemolysis assay (inhibition of classical complement pathway); assay type: cell-based, human; details: human serum, sensitized sheep red blood cells; Table 3, given as upper bounds; read-out: IC50, inhibition of hemolysis
Outline: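 Compound dilutions preincubated 15 min at room temperature with diluted human serum (titrated per batch for 70-90% maximal haemolysis), then antibody-sensitized sheep RBC (10^7/well) added for 30 min at 37 °C in Tris/casein buffer, pH 7.4. Stopped with EDTA; haemolysis read at 405 nm; IC50 by 4PL fit.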

[2] = Solubility test at 10 mg/mL (visual inspection and light scattering); assay type: physicochemical; details: for Solubility, Condition 1: Acetate pH 4; for Solubility, Condition 2: Acetate pH 5; for Solubility, Condition 3: Phosphate pH 6; for Solubility, Condition 4: Phosphate pH 7; for Solubility, Condition 5: Phosphate pH 7.5
Procedure: The solubility of compounds was assessed by measuring light scattering over a pH interval from pH 4 to pH 7.5.
Compounds were dissolved in a stock solution of 20 mg/mL in H2O at pH 2.5 or pH 10. These stock solutions were diluted 1:1 with 200 mM buffered solution to reach a final solution of 10 mg/mL compound in 100 mM buffer. The 5 investigated conditions were (1) acetate pH 4.0, (2) acetate pH 5.0, (3) phosphate pH 6.0, (4) phosphate pH 7 and (5) phosphate pH 7.5.
Visual inspection included manually checking the 96 well plate for wells that are clear or non-clear. In addition to this a picture of the 96 well plate is taken.
Absorbance was measured at four wavelengths: 280 nm, 325 nm, 340 nm and 360 nm in an UV transparent 96 well microplate in a SpectraMax 190 microplate reader (Molecular Devices).
The criteria for this was a combination of visual inspection and light scattering not exceeding 0.1 AU, where values below 0.1 AU are good in visually clear samples.

Row | SMILES | IC50 [1] [nM] | Solubility, Condition 1 [2] | Solubility, Condition 2 [2] | Solubility, Condition 3 [2] | Solubility, Condition 4 [2] | Solubility, Condition 5 [2]
1 | CC[C@H](C)[C@H](NC(C)=O)C(=O)N[C@H]1CSSC[C@@H](C(=O)N[C@H](C(=O)N[C@@H](CCC(=O)O)C(=O)N[C@@H](C)C(N)=O)[C@@H](C)O)NC(=O)[C@H](CCCNC(=N)N)NC(=O)[C@H](Cc2c[nH]cn2)NC(=O)[C@H](CCC(=O)O)NC(=O)CNC(=O)[C@H](Cc2c[nH]c3ccccc23)NC(=O)[C@H](CC(=O)O)NC(=O)[C@H](CCC(N)=O)NC(=O)[C@H](Cc2c[nH]c3ccccc23)NC(=O)[C@H]([C@@H](C)CC)NC1=O [Compound 25] (Ac-ICIWQDWGEHRCTEA-NH2; disulfide 2-12) | < 100 | + (“+” denotes solubility at the given condition, as determined by UV absorbance being less than 0.1 AU at 340 nm and the sample being clear when manually inspected) | − (“−” denotes lack of solubility at the given condition, as UV absorbance at 340 nm exceeds 0.1 AU and/or it is visibly turbid or contains particles) | − (“−” denotes lack of solubility at the given condition, as UV absorbance at 340 nm exceeds 0.1 AU and/or it is visibly turbid or contains particles) | + (“+” denotes solubility at the given condition, as determined by UV absorbance being less than 0.1 AU at 340 nm and the sample being clear when manually inspected) | + (“+” denotes solubility at the given condition, as determined by UV absorbance being less than 0.1 AU at 340 nm and the sample being clear when manually inspected)
2 | CC[C@H](C)[C@@H]1NC(=O)[C@@H](NC(=O)[C@H](Cc2ccccc2)NC(=O)[C@H](CCC(=O)O)NC(=O)[C@H](CO)NC(C)=O)CSSC[C@@H](C(=O)N[C@H](C(=O)NCC(=O)N[C@@H](C)C(=O)N[C@@H](CCC(=O)O)C(=O)N[C@@H](CO)C(N)=O)[C@@H](C)O)NC(=O)[C@H](CCCNC(=N)N)NC(=O)[C@H](Cc2c[nH]cn2)NC(=O)[C@H](CCC(=O)O)NC(=O)CNC(=O)[C@H](Cc2c[nH]c3ccccc23)NC(=O)[C@H](CC(=O)O)NC(=O)[C@H](CCC(N)=O)NC(=O)[C@H](Cc2cn(C)c3ccccc23)NC1=O [Compound 67] (Ac-SEFCI[Trp(1-Me)]QDWGEHRCTGAES-NH2; disulfide 4-14) | < 100 | − (“−” denotes lack of solubility at the given condition, as UV absorbance at 340 nm exceeds 0.1 AU and/or it is visibly turbid or contains particles) | − (“−” denotes lack of solubility at the given condition, as UV absorbance at 340 nm exceeds 0.1 AU and/or it is visibly turbid or contains particles) | + (“+” denotes solubility at the given condition, as determined by UV absorbance being less than 0.1 AU at 340 nm and the sample being clear when manually inspected) | + (“+” denotes solubility at the given condition, as determined by UV absorbance being less than 0.1 AU at 340 nm and the sample being clear when manually inspected) | + (“+” denotes solubility at the given condition, as determined by UV absorbance being less than 0.1 AU at 340 nm and the sample being clear when manually inspected)
3 | CC[C@H](C)[C@@H]1NC(=O)[C@@H](NC(=O)[C@H](Cc2ccccc2)NC(=O)[C@H](C)NC(=O)[C@H](CO)NC(=O)CNC(=O)[C@H](CCC(=O)O)NC(C)=O)CSSC[C@@H](C(=O)N[C@H](C(=O)N[C@@H](CCC(=O)O)C(N)=O)[C@@H](C)O)NC(=O)[C@H](CCCNC(=N)N)NC(=O)[C@H](Cc2c[nH]cn2)NC(=O)[C@H](CCC(=O)O)NC(=O)CNC(=O)[C@H](Cc2c[nH]c3ccccc23)NC(=O)[C@H](CC(=O)O)NC(=O)[C@H](CCC(N)=O)NC(=O)[C@H](Cc2cccc3ccccc23)NC1=O [Compound 56] (Ac-EGSAFCI[1Nal]QDWGEHRCTE-NH2; disulfide 6-16) | < 100 | − (“−” denotes lack of solubility at the given condition, as UV absorbance at 340 nm exceeds 0.1 AU and/or it is visibly turbid or contains particles) | − (“−” denotes lack of solubility at the given condition, as UV absorbance at 340 nm exceeds 0.1 AU and/or it is visibly turbid or contains particles) | + (“+” denotes solubility at the given condition, as determined by UV absorbance being less than 0.1 AU at 340 nm and the sample being clear when manually inspected) | + (“+” denotes solubility at the given condition, as determined by UV absorbance being less than 0.1 AU at 340 nm and the sample being clear when manually inspected) | + (“+” denotes solubility at the given condition, as determined by UV absorbance being less than 0.1 AU at 340 nm and the sample being clear when manually inspected)
4 | CC[C@H](C)[C@@H]1NC(=O)[C@@H](NC(=O)[C@H](Cc2ccc(O)cc2)NC(=O)[C@H](CCC(=O)O)NC(=O)[C@H](CO)NC(C)=O)CSSC[C@@H](C(=O)N(C)CC(=O)N[C@@H](CCC(=O)O)C(=O)NCC(=O)N[C@@H](CCC(=O)O)C(=O)N[C@@H](CCCCNC(=O)CC[C@H](NC(=O)CNC(=O)CC[C@H](NC(=O)CCCCCCCCCCCCCCCCC(=O)O)C(=O)O)C(=O)O)C(N)=O)NC(=O)[C@H](CCCNC(=N)N)NC(=O)[C@H](Cc2c[nH]cn2)NC(=O)[C@H](CCC(=O)O)NC(=O)CNC(=O)[C@H](Cc2c[nH]c3ccccc23)NC(=O)[C@H](CC(=O)O)NC(=O)[C@H](CCC(N)=O)NC(=O)[C@H](Cc2cn(C)c3ccccc23)NC1=O [Compound 114] (Ac-SEYCI[Trp(1-Me)]QDWGEHRC[Sar]EGEK([γGlu-Gly-γGlu-C18 diacid])-NH2; disulfide 4-14) | < 500 | + (“+” denotes solubility at the given condition, as determined by UV absorbance being less than 0.1 AU at 340 nm and the sample being clear when manually inspected) | + (“+” denotes solubility at the given condition, as determined by UV absorbance being less than 0.1 AU at 340 nm and the sample being clear when manually inspected) | + (“+” denotes solubility at the given condition, as determined by UV absorbance being less than 0.1 AU at 340 nm and the sample being clear when manually inspected) | + (“+” denotes solubility at the given condition, as determined by UV absorbance being less than 0.1 AU at 340 nm and the sample being clear when manually inspected) | + (“+” denotes solubility at the given condition, as determined by UV absorbance being less than 0.1 AU at 340 nm and the sample being clear when manually inspected)
5 | CC[C@H](C)[C@@H]1NC(=O)[C@@H](NC(=O)[C@H](Cc2ccccc2)NC(=O)[C@H](CCC(=O)O)NC(=O)[C@H](CO)NC(C)=O)CSSC[C@@H](C(=O)N[C@H](C(=O)N[C@@H](CCC(=O)O)C(=O)NCC(=O)N[C@@H](CCC(=O)O)C(=O)NCCCCCCCC(=O)N[C@@H](CCCCNC(=O)CC[C@H](NC(=O)CNC(=O)CC[C@H](NC(=O)CCCCCCCCCCCCCCCCC(=O)O)C(=O)O)C(=O)O)C(N)=O)[C@@H](C)O)NC(=O)[C@H](CCCNC(=N)N)NC(=O)[C@H](Cc2c[nH]cn2)NC(=O)[C@H](CCC(=O)O)NC(=O)CNC(=O)[C@H](Cc2c[nH]c3ccccc23)NC(=O)[C@H](CC(=O)O)NC(=O)[C@H](CCC(N)=O)NC(=O)[C@H](Cc2cn(C)c3ccccc23)NC1=O [Compound 136] (Ac-SEFCI[Trp(1-Me)]QDWGEHRCTEGE[Aoc]K([γGlu-Gly-γGlu-C18 diacid])-NH2; disulfide 4-14) | < 100 | – | – | – | – | –
6 | CC[C@H](C)[C@@H]1NC(=O)[C@@H](NC(=O)[C@H](Cc2ccc(O)cc2)NC(=O)[C@H](C)NC(=O)[C@H](CO)NC(=O)CNC(=O)[C@H](CCC(=O)O)NC(C)=O)CSSC[C@@H](C(=O)N(C)CC(=O)N[C@@H](CCC(=O)O)C(=O)NCC(=O)N[C@@H](CCCCN)C(=O)N[C@@H](CCCCNC(=O)CC[C@H](NC(=O)CNC(=O)CC[C@H](NC(=O)CCCCCCCCCCCCCCCCC(=O)O)C(=O)O)C(=O)O)C(N)=O)NC(=O)[C@H](CCCNC(=N)N)NC(=O)[C@H](Cc2c[nH]cn2)NC(=O)[C@H](CCC(=O)O)NC(=O)CNC(=O)[C@H](Cc2c[nH]c3ccccc23)NC(=O)[C@H](CC(=O)O)NC(=O)[C@H](CCC(N)=O)NC(=O)[C@H](Cc2cn(C)c3ccccc23)NC1=O [Compound 110] (Ac-EGSAYCI[Trp(1-Me)]QDWGEHRC[Sar]EGKK([γGlu-Gly-γGlu-C18 diacid])-NH2; disulfide 6-16) | < 250 | – | – | – | – | –
